Structures can show the parent of a compound that is named as a salt. Where two headings read alike, the source gives them in different places.
Experiments:
PRMT5/MEP50 complex = molecular target: T1, PRMT5/MEP50 complex (Homo sapiens, UniProt O14744); experiment: PRMT5:MEP50 FlashPlate Assay (histone H4 peptide methylation); type: biochemical; details: 40 nM H4 (1-15) peptide, 1 μM SAM
T1 construct: purchased Reaction Biology Corporation
Method: The PRMT5 inhibitory activity of compounds of the present invention was determined using a PRMT5: MEP50 FlashPlate Assay and a PRMT5: MEP50 HotSpot Assay (Reaction Biology Corporation).
The assay uses purified human, PRMT5 enzyme to convert S-adenosyl-L-[methyl-3H]methionine plus histone H4 L-arginine to S-adenosyl-L-homocysteine plus histone H4 [methyl-3H]-L-arginine. The assay was carried out using Streptavidin-coated FlashPlates (Perkin Elmer), which contained a scintillant embedded in the plastic of the plate. The histone H4 peptide substrate was conjugated with biotin, which binds to the streptavidin-coated well of the plate, placing the H4 peptide in close proximity to the side well and the scintillant. The transfer of the tritiated methyl group from S-adenosyl-L-[methyl-3H]methionine to the bound histone H4 peptide generated a radiolabeled histone H4, which was quantitated by measuring in a scintillation counter to determine the activity of PRMT5 enzyme in the presence and absence of compound. […] Briefly, compounds of the present invention were solubilized in 100% DMSO at a highest concentration of 10 mM. […] Control samples lacking compound, PRMT5/MEP50 complex or various reaction components also were prepared and processed in parallel with compound test samples. SAH was used as a positive control for assay validation. To measure PRMT5 inhibitory activity, 3 nM PRMT5/MEP50 complex (Reaction Biology Corporation) was preincubated with test compound in assay buffer containing 40 nM histone H4 peptide (amino acids 1-15)-Biotin conjugate for 20 min at room temperature. The enzymatic reaction was initiated by adding 1 μM tritiated S-adenosyl methionine (final concentration) and the reaction is allowed to proceed for 20 min. The reaction was stopped and the amount of bound, tritiated H4 peptide in each sample was determined using a scintillation counter.

PRMT5-MEP50 = molecular target: T2, PRMT5-MEP50 (Homo sapiens, UniProt O14744); experiment: SPR binding assay (PRMT5.MTA and PRMT5·SAM surfaces); details: steady-state fit
T2 construct: biotin (in vivo biotinylated)
T2 sequence (O14744 whole entry): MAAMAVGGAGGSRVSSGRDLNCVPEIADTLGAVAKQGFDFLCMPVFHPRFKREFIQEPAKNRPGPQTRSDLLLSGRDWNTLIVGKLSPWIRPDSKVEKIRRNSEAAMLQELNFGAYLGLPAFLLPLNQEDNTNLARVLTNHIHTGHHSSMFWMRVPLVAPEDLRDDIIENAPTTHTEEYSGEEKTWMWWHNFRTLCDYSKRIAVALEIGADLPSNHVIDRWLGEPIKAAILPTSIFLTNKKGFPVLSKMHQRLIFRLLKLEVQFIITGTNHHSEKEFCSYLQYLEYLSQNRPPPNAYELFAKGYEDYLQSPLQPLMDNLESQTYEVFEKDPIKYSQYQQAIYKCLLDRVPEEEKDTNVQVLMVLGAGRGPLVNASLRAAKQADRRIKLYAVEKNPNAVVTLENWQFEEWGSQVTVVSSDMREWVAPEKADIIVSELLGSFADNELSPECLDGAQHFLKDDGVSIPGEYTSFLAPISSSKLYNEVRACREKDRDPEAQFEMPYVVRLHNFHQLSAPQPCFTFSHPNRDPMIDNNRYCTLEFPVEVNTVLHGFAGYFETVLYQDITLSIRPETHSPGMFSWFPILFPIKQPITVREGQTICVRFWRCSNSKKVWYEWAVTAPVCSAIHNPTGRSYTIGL
T2 sequence (Q9BQA1 whole entry partner): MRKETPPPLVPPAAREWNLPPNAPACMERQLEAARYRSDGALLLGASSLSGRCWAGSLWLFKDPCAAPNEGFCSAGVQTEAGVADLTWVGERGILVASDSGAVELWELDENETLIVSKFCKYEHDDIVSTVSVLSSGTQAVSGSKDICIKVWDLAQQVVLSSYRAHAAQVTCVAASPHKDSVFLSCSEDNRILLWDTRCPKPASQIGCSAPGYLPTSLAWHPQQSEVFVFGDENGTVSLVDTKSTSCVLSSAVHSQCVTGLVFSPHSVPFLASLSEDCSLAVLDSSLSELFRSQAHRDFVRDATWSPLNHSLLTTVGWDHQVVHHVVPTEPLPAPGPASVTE
Method: In vivo biotinylated PRMT5-MEP50 was diluted to […] in 25 mM Bicine pH 7.6, 100 mM NaCl, 1 mM TCEP, and 0.05% Tween-20 and injected at 5 μl/min flow rate into flow cell 2 (FC2) of a Series S Sensor Chip SA (Cytiva) in a Biacore T200 or in a Biacore 8K plus (Cytiva). SPR screening was performed in MTA running buffer (25 mM Bicine pH 7.6, 100 mM NaCl, 1 mM TCEP, 20 µM MTA, 0.05% Tween-20 and 2% DMSO). The biotinylated PRMT5-MEP50 surface was equilibrated with MTA running buffer for 12 hours prior to the start. […] Subsequently, compound titration was repeated in SAM-running buffer (25 mM Bicine pH 7.6, 100 mM NaCl, 1 mM TCEP, 20 μM SAM, 0.05% Tween-20, and 2% DMSO). […] After double referencing, the steady-state response was extracted for each fragment concentration and was fit to the Langmuir isotherm equation to determine the equilibrium dissociation constant (KD).

[1] = PRMT5.MTA surface, MTA running buffer (20 µM MTA), read-out: KD MTA
[2] = PRMT5·SAM surface, SAM running buffer (20 μM SAM), read-out: KD SAM

T1 sequence (O14744 2-637 limits assumed): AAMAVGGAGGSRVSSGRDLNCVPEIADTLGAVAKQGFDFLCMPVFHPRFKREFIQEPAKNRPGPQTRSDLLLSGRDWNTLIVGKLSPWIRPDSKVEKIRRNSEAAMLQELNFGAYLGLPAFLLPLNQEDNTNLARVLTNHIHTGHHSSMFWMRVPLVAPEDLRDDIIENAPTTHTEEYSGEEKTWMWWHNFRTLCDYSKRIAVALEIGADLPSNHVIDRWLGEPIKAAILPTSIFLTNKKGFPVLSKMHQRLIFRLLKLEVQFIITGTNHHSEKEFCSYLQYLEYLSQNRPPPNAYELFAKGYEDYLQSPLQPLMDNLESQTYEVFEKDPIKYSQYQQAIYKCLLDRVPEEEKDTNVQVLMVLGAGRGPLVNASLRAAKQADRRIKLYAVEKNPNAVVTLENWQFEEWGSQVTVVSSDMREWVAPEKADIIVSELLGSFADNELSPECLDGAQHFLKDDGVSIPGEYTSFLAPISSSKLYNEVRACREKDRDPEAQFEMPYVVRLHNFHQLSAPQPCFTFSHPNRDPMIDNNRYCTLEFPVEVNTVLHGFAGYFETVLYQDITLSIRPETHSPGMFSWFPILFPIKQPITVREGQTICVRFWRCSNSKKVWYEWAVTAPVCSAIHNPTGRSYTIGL
T1 sequence (Q9BQA1 2-342 partner limits assumed): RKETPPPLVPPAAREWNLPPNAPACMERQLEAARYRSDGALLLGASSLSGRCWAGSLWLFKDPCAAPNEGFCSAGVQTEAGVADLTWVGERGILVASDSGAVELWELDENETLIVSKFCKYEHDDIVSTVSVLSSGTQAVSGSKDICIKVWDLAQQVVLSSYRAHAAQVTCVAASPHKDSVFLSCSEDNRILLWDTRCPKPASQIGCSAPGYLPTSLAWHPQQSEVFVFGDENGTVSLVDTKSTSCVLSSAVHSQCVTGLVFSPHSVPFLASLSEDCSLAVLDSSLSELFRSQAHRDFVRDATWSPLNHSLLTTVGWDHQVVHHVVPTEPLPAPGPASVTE

| Compound | IC50 (PRMT5/MEP50 complex; IC50 + 2 μM MTA, plus 2 μM MTA) | IC50 (PRMT5/MEP50 complex; absence of MTA, read-out: IC50) | Kd (PRMT5-MEP50; [1]) | Kd (PRMT5-MEP50; [2]) |
| --- | --- | --- | --- | --- |
| Cn1c(N)nc2cc(C(=O)c3cccnc3)cc(C#N)c21 [Example 3-16, 2-amino-3-methyl-6-(pyridine-3-carbonyl)benzimidazole-4-carbonitrile] | > 300 µM | > 300 µM | 7.51 µM | 23.6 µM |
| Nc1nc2ncccc2n1Cc1ccccc1 [Example 5-2, 1-benzylimidazo[4,5-b]pyridin-2-amine hydrochloride] | 76.2 µM | > 300 µM |  | 176 µM |
| Cn1ncc(-c2cc(Cl)cc3c2nc(N)n3C)c1-c1ccccc1C#N [Example 6-1, 2-[4-(2-amino-6-chloro-1-methyl-benzimidazol-4-yl)-2-methyl-pyrazol-3-yl]benzonitrile] | 14 µM | > 300 µM | 0.322 µM | 0.816 µM |
| Cc1cc(-c2cnn(C)c2-c2ccccc2C#N)c2nc(N)n(C)c2c1 [Example 6-2, 2-[4-(2-amino-1,6-dimethyl-benzimidazol-4-yl)-2-methyl-pyrazol-3-yl]benzonitrile hydrochloride] | 29.3 µM | > 300 µM | 0.047 µM |  |

— patent publication US20260109709A1 (MIRATI THERAPEUTICS, INC., priority 2021, published 2026)
